We go through 52 molecules from patent US10442763B2, “EBNA1 inhibitors and methods using same” (priority 2015, dated 2019).

A value given as a limit tells only on which side of the number the result lay.

In this assay the target is T1, His-EBNA1 (DNA binding domain of EBNA1, amino acids 459-607) (Epstein-Barr virus, UniProt P03211).
T1 construct: made in house; host or cells: E. coli
T1 sequence (P03211 459-607): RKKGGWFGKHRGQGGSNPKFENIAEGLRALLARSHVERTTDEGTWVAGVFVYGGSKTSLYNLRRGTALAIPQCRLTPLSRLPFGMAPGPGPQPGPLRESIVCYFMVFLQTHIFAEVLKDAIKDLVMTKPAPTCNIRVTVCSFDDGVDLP
Description: Inhibition of 5'-biotin-oPL4624 binding to His-EBNA1 using Alpha Screen technology. As to the method:
Inhibition of 5′-Biotin-oPL4624 Binding to his-EBNA1 Using Alpha Screen Technology
Assays were performed using the DNA binding domain of EBNA1 (amino acids 459-607), which was His-tagged (His-EBNA1) and the self-complementary biotinylated (bt) oligonucleotide with the sequence 5′-bt-[…]-ATGCTACCC-3′ (bt-oPL4624; or 5′-bt-SEQ ID NO: 1). The protein was expressed in E. coli and purified according to Barwell, et al., 1995, J Biol Chem. 270:20556-9.). The bt-oPL4624 oligonucleotide was purchased from Integrated DNA Technologies, Inc (IDT). AlphaScreen donor, acceptor beads and white, opaque 384-well assay plates were purchased from PerkinElmer, Inc.
Assays contained 15 nM His-EBNA1, 0.2 nM bt-oPL4624, 5 μg/mL AlphaScreen streptavidin donor beads and nickel chelate acceptor beads, and a series of concentrations of test compound ranging from 3.2 nM to 100 μM in a total volume of 40 μL assay buffer (25 mM Tris, pH 7.2, 160 mM NaCl, 1 mM MgCl2). His-EBNA1 (30 nM) and bt-oPL4624 (0.4 nM) were preincubated with 10 μg/mL nickel chelate AlphaScreen acceptor bead, or 10 μg/mL streptavidin AlphaScreen donor bead, respectively, for 30 minutes at room temperature in assay buffer. Twenty microliters of His-EBNA1/acceptor bead mix and bt-oPL4624/donor bead mix were transferred to assay plates containing 0.4 μL of 1:3 serial dilutions of test compounds previously prepared in DMSO at concentrations ranging from 0.32 μM to 10 mM. Non-specific binding was determined with 5 μg/mL AlphaScreen acceptor bead in the absence of His-EBNA1. After 2 hr incubation at room temperature, the AlphaScreen signal was measured on the Envision plate reader (PerkinElmer, Inc.) at 680 nm excitation and 570 nm emission. Inhibition values at each concentration of test compound were determined by setting 100% equal to raw data values in the absence of EBNA1 and 0% equal to the raw data values in the presence of EBNA1. Nonlinear regression fits of the inhibition values to a one-site dose-response equation were performed using GraphPad Prism.
For orientation: In Alpha technology, singlet oxygen from a donor bead excites a nearby acceptor bead.
The molecule `O=C(O)c1cccc(C#Cc2ccccc2)c1-c1ccc2scnc2c1` [Entry 111] returned a 50% inhibitory concentration (IC50) of 10 to 100 µM.

With `Cc1nc2cc(-c3c(C#Cc4ccccc4)cccc3C(=O)O)ccc2s1` [Entry 112], the 50% inhibitory concentration (IC50) lay in the range of 10 to 100 µM.

`O=C(O)c1cccc(C#Cc2ccccc2)c1-c1cc2[nH]ccc2cc1F` [Entry 113] returned an IC50 of 1 to 10 µM.

`O=C(O)c1cccc(C#Cc2ccccc2)c1-c1cc2cc[nH]c2cc1F` [Entry 114]: the IC50 fell in the range of 10 to 100 µM.

In the case of `O=C(O)c1cccc(C#Cc2ccccc2)c1-c1cnc2ncccc2c1` [Entry 115], the IC50 is 100 to 1000 µM.

`Cn1ccc2ccc(-c3c(C#Cc4ccccc4)cccc3C(=O)O)nc21` [Entry 116] displayed an IC50 of 10 to 100 µM.

The molecule `O=C(O)c1cccc(C#Cc2ccccc2)c1-c1ccc2cccnc2n1` [Entry 117] came in with a 50% inhibitory concentration (IC50) of 10 to 100 µM.

Consider `O=C(O)c1cccc(C#Cc2ccccc2)c1-c1ccc2cc[nH]c2n1` [Entry 118], for which the IC50 fell in the range of 100 to 1000 µM.

The molecule `COc1cc(-c2c(C#Cc3ccccc3)cccc2C(=O)O)cc2[nH]ccc12` [Entry 119] had a half-maximal inhibitory concentration (IC50) of 1 to 10 µM.

Molecule `CC(C)(O)c1ccc(C#Cc2cccc(C(=O)O)c2-c2ccc3cc[nH]c3c2)cc1` [Entry 120] showed an IC50 of 1 to 10 µM.

For the molecule `Nc1nc(-c2ccc(C#Cc3cccc(C(=O)O)c3-c3ccc4cc[nH]c4c3)cc2)cs1` [Entry 121], the IC50 was in the range of 1 to 10 µM.

`NS(=O)(=O)c1cccc(C#Cc2cccc(C(=O)O)c2-c2ccc3cc[nH]c3c2)c1` [Entry 122] displayed an IC50 of 10 to 100 µM.

`Nc1ccc(C#Cc2cccc(C(=O)O)c2-c2ccc3cc[nH]c3c2)cc1S(N)(=O)=O` [Entry 123] came in with an IC50 of 10 to 100 µM.

As to `CC(C)(C)OC(=O)N1CCC2(CC1)CC(=O)c1cc(C#Cc3cccc(C(=O)O)c3-c3ccc4cc[nH]c4c3)ccc1O2` [Entry 124], the IC50 was 1 to 10 µM.

Molecule `Nc1nc(-c2cccc(C#Cc3cccc(C(=O)O)c3-c3ccc4cc[nH]c4c3)c2)cs1` [Entry 125] registered an IC50 of 1 to 10 µM.

The molecule `Nc1nnc(-c2ccc(C#Cc3cccc(C(=O)O)c3-c3ccc4cc[nH]c4c3)cc2)s1` [Entry 127] registered a half-maximal inhibitory concentration (IC50) of 1 to 10 µM.

Molecule `Nc1cc(-c2ccc(C#Cc3cccc(C(=O)O)c3-c3ccc4cc[nH]c4c3)cc2)[nH]n1` [Entry 128] registered a half-maximal inhibitory concentration (IC50) of 1 to 10 µM.

The molecule `Nc1nc(-c2ccc(C#Cc3cccc(C(=O)O)c3-c3ccc4cc[nH]c4c3)cc2)c(C(=O)O)s1` [Entry 129] returned a 50% inhibitory concentration (IC50) below 1 µM.

In turn, `Nc1ncc(-c2ccc(C#Cc3cccc(C(=O)O)c3-c3ccc4cc[nH]c4c3)cc2)o1` [Entry 130] returned a concentration for half-maximal inhibition (IC50) of 1 to 10 µM.

Regarding `CS(=O)(=O)Nc1nc(-c2ccc(C#Cc3cccc(C(=O)O)c3-c3ccc4cc[nH]c4c3)cc2)cs1` [Entry 131], the half-maximal inhibitory concentration (IC50) was below 1 µM.

The molecule `CS(=O)(=O)Nc1nc(-c2cccc(C#Cc3cccc(C(=O)O)c3-c3ccc4cc[nH]c4c3)c2)cs1` [Entry 132] had an IC50 below 1 µM.

`COC1CCN(Cc2nc(=O)c3cc(C#Cc4cccc(C(=O)O)c4-c4ccc5cc[nH]c5c4)ccc3[nH]2)CC1` [Entry 133] showed a 50% inhibitory concentration (IC50) of 10 to 100 µM.

For the molecule `O=C(O)c1cccc(C#Cc2ccc3[nH]c(CN4CCS(=O)(=O)CC4)nc(=O)c3c2)c1-c1ccc2cc[nH]c2c1` [Entry 134], the 50% inhibitory concentration (IC50) lay within 1 to 10 µM.

As for `O=C(O)c1cccc(C#Cc2ccc3nc(C(F)(F)F)[nH]c(=O)c3c2)c1-c1ccc2cc[nH]c2c1` [Entry 135], the IC50 lay within 1 to 10 µM.

Molecule `COc1cccc(C)c1NC(=O)c1cccc(C#Cc2cccc(C(=O)O)c2-c2ccc3cc[nH]c3c2)c1` [Entry 137] yielded an IC50 of 1 to 10 µM.

`O=C(Nc1ccc(N2CCS(=O)(=O)CC2)cc1)c1cccc(C#Cc2cccc(C(=O)O)c2-c2ccc3cc[nH]c3c2)c1` [Entry 138] yielded a concentration for half-maximal inhibition (IC50) of 1 to 10 µM.

In the case of `O=C(O)c1cccc(C#Cc2ccccc2)c1-c1cnc2[nH]ccc2c1` [Entry 139], the IC50 was below 1 µM.

In turn, `O=C(O)c1cccc(C#Cc2ccc(F)cc2)c1-c1cnc2[nH]ccc2c1` [Entry 140] had a half-maximal inhibitory concentration (IC50) of 10 to 100 µM.

`COc1ccc(C#Cc2cccc(C(=O)O)c2-c2cnc3[nH]ccc3c2)cc1` [Entry 141] came in with an IC50 of 10 to 100 µM.

`O=C(O)c1cccc(C#Cc2ccc(OC3CCOCC3)cc2)c1-c1cnc2[nH]ccc2c1` [Entry 142] gave an IC50 of 10 to 100 µM.

For `O=C(O)c1cccc(C#Cc2ccc(OCCC3CCOCC3)cc2)c1-c1ccc2cc[nH]c2c1` [Entry 143], the IC50 lay in the range of 1 to 10 µM.

`O=C(O)c1cccc(C#Cc2ccc(OC3CCS(=O)(=O)CC3)cc2)c1-c1ccc2cc[nH]c2c1` [Entry 144] had a half-inhibitory concentration (IC50) of 10 to 100 µM.

Take `O=C(O)c1cccc(C#Cc2ccc(CN3CCOCC3)cc2)c1-c1ccc2cc[nH]c2c1` [Entry 145]: the IC50 was 1 to 10 µM.

Molecule `CCN1CCN(Cc2ccc(C#Cc3cccc(C(=O)O)c3-c3ccc4cc[nH]c4c3)cc2)CC1` [Entry 146] came in with an IC50 of 10 to 100 µM.

Molecule `CN1CCN(Cc2ccc(C#Cc3cccc(C(=O)O)c3-c3ccc4cc[nH]c4c3)cc2)CC1` [Entry 147] displayed an IC50 of 10 to 100 µM.

The molecule `O=C(O)c1cccc(C#Cc2ccc(CN3CCS(=O)(=O)CC3)cc2)c1-c1ccc2cc[nH]c2c1` [Entry 148] returned an IC50 of 1 to 10 µM.

`CN(C)CCN(C)Cc1ccc(C#Cc2cccc(C(=O)O)c2-c2ccc3cc[nH]c3c2)cc1` [Entry 149] came in with an IC50 of 10 to 100 µM.

`O=C(O)c1cccc(C#Cc2ccc(CN3CCC(CCO)CC3)cc2)c1-c1ccc2cc[nH]c2c1` [Entry 150] registered an IC50 of 1 to 10 µM.

The molecule `O=C(O)c1cccc(C#Cc2ccc(CN3CCC(CO)CC3)cc2)c1-c1ccc2cc[nH]c2c1` [Entry 151] displayed a half-inhibitory concentration (IC50) of 10 to 100 µM.

Consider `CN1CCCN(Cc2ccc(C#Cc3cccc(C(=O)O)c3-c3ccc4cc[nH]c4c3)cc2)CC1` [Entry 152], for which the concentration for half-maximal inhibition (IC50) is 1 to 10 µM.

As for `O=C(O)c1cccc(C#Cc2ccc(CN3CC(O)C3)cc2)c1-c1ccc2cc[nH]c2c1` [Entry 153], the IC50 lay within 10 to 100 µM.

For `O=C(O)c1cccc(C#Cc2ccc(CN3CCC(O)CC3)cc2)c1-c1ccc2cc[nH]c2c1` [Entry 154], the concentration for half-maximal inhibition (IC50) was 10 to 100 µM.

`COC1CCN(Cc2ccc(C#Cc3cccc(C(=O)O)c3-c3ccc4cc[nH]c4c3)cc2)CC1` [Entry 155]: the IC50 is 10 to 100 µM.

In the case of `CN(C)Cc1ccc(C#Cc2cccc(C(=O)O)c2-c2ccc3cc[nH]c3c2)cc1` [Entry 156], the IC50 fell in the range of 10 to 100 µM.

Turning to `COCCN(C)Cc1ccc(C#Cc2cccc(C(=O)O)c2-c2ccc3cc[nH]c3c2)cc1` [Entry 157], the IC50 was in the range of 10 to 100 µM.

As for `O=C(O)c1cccc(C#Cc2ccc(CN3CCC(F)(F)CC3)cc2)c1-c1ccc2cc[nH]c2c1` [Entry 158], the IC50 was 1 to 10 µM.

`O=C(O)c1cccc(C#Cc2ccc(CN3CCCC(F)(F)C3)cc2)c1-c1ccc2cc[nH]c2c1` [Entry 159]: the half-maximal inhibitory concentration (IC50) lay within 1 to 10 µM.

`O=C(O)c1cccc(C#Cc2ccc(CN3CCc4ccccc4C3)cc2)c1-c1ccc2cc[nH]c2c1` [Entry 160] registered an IC50 of 1 to 10 µM.

On to `CS(=O)(=O)N1CCN(Cc2ccc(C#Cc3cccc(C(=O)O)c3-c3ccc4cc[nH]c4c3)cc2)CC1` [Entry 161], for which the 50% inhibitory concentration (IC50) fell in the range of 10 to 100 µM.

Regarding `O=C(O)c1cccc(C#Cc2ccc(CN3CCCC(C(F)(F)F)C3)cc2)c1-c1ccc2cc[nH]c2c1` (stereo not shown) [Entry 162], the IC50 lay in the range of 1 to 10 µM.

Molecule `COC1CCN(Cc2ccc(C#Cc3cccc(C(=O)O)c3-c3ccc4cc[nH]c4c3)cc2)C1` (stereo not shown) [Entry 163] yielded an IC50 of 10 to 100 µM.

For `CC(C)N1CCN(Cc2ccc(C#Cc3cccc(C(=O)O)c3-c3ccc4cc[nH]c4c3)cc2)CC1` [Entry 164], the concentration for half-maximal inhibition (IC50) lay in the range of 10 to 100 µM.

As usually defined, the IC50 is the point on the concentration scale where inhibition reaches its midpoint. Read a low IC50 as higher potency.
